# Results taken from patent US20050191245A1, “Nasal administration of calcium channel, blockers for treatment of hypertension and other cardiovascular disorders” (priority 2004, published 2005).
# Read-outs that look alike come from different tables or passages of the source.
# Assays:
# male Sprague-Dawley rats [1] = test system: male Sprague-Dawley rats
# male Sprague-Dawley rats [2] = settings: nasal, 2%, 20 uL/nare; vehicle cyclodextrin; urethane-anesthetized rats; FIG. 2
# Method: Mean arterial blood pressure was measured using a Digi-Med Blood Pressure Analyzer. The rats were anesthetized with urethane (2 g/kg, IP) and the left carotid artery was cannulated. A baseline blood pressure was recorded then the drug (or vehicle) was administered and blood pressure recorded for 45-60 minutes.
"total distance traveled, compared to no treatment group (male Sprague-Dawley rats [1]; rat, in vivo)","total distance traveled, drug treated groups compared to vehicle treated group (male Sprague-Dawley rats [1]; rat, in vivo)",Compound,effect on mean arterial blood pressure compared to vehicle treated group (male Sprague-Dawley rats [2]),"total distance traveled, drug treated groups compared to vehicle treated group (male Sprague-Dawley rats [1]; nasal, 2%, 20 uL/nare, vehicle distilled water, an hour after administration, FIG. 5)"
statistically significant difference,no significant difference,C(=C\c1ccccc1)/CN1CCN(C(c2ccccc2)c2ccccc2)CC1 [cinnarizine],Only the nifedipine group at 45 minutes was statistically significantly different,
,no significant difference,COc1ccc([C@@H]2Sc3ccccc3N(CCN(C)C)C(=O)[C@@H]2OC(C)=O)cc1 [diltiazem],,
,,COc1ccc(CCN(C)CCCC(C#N)(c2ccc(OC)c(OC)c2)C(C)C)cc1OC (centres unmarked) [verapamil],,no significant difference
